{
  "source": "patent US4980377A",
  "about": "“1-(aminophenyl)-2-aminopropanone derivatives” (Laboratoire L. Lafon, priority 1984, dated 1990)",
  "key": {"rats [1]": {"tested_on": "rats", "assay": "Interaction with apomorphine in rats", "assay_type": "in vivo, rat", "conditions": "i.p.", "description": "CRL 41 153 is administered to groups of 6 rats 0.5 hour before the subcutaneous injection of 0.5 mg/kg of apomorphine."}, "mice [2]": {"tested_on": "mice", "assay": "Interaction with reserpine", "assay_type": "in vivo, mouse", "conditions": "i.p.", "description": "Four hours after the intraperitoneal injection of 2.5 mg/kg of reserpine, groups of 6 mice receive CRL 41 153."}, "mice [3]": {"tested_on": "mice", "assay": "Interaction with oxotremorine", "assay_type": "in vivo, mouse", "conditions": "i.p.", "description": "CRL 41 153 is administered to groups of 6 mice 0.5 hour before the intraperitoneal injection of 0.5 mg/kg of oxotremorine."}, "mice [4]": {"tested_on": "mice", "assay": "Behavioral despair", "assay_type": "in vivo, mouse", "conditions": "forcibly immersed mice, i.p.", "text": "Half an hour after they have received CRL 41 153, groups of 6 mice are placed in a beaker filled with water to a height of 6 cm. The total period of immobility between the 2nd and 6th minutes following immersion is noted."}, "[5]": {"tested_on": "gravid White New Zealand female rabbits", "assay": "Teratogenicity in gravid White New Zealand rabbits", "assay_type": "in vivo, rabbit", "conditions": "day 5 to day 18 of gestation; for Affected foetuses, %: normal limit 1.5%", "procedure,_shortened": "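Fetuses harvested by cesarean on gestation day 29 were scored for number and for any malformation (limb blockade, anury, tail or skull defects, exencephaly).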"}, "mice [6]": {"tested_on": "mice", "assay": "Interaction with barbital", "assay_type": "in vivo, mouse", "conditions": "i.p., barbital 220 mg/kg", "description": "Half an hour after the administration of CRL 41 153, groups of 10 mice receive an intraperitoneal injection of barbital (220 mg/kg)."}, "mice [7]": {"tested_on": "mice", "assay": "Motility reduced by habituation to the enclosure", "assay_type": "in vivo, mouse", "conditions": "i.p.", "description": "After they have stayed In the actimeters for 18 hours, (he mice (6 per dose, 12 control animals) receive CRL 41 153. They are immediately returned to their respective enclosures and, half an hour later, their motility is recorded for 30 minutes."}, "rats [8]": {"tested_on": "rats", "assay": "Interaction with amphetamine", "assay_type": "in vivo, rat", "conditions": "i.p.", "description": "Amphetamine (2 mg/kg) is injected intraperitoneally into groups of 6 rats 30 minutes after the administration of CRL 41 153. […] 4 mg/kg and 16 mg/kg, CRL 41 153 potentiates the intensity and duration of the stereotypies induced by amphetamine."}, "mice [9]": {"tested_on": "mice", "assay": "Motility reduced by hypoxic aggression", "assay_type": "in vivo, mouse", "conditions": "i.p.", "description": "Half an hour after they have received CRL 41 153, the mice (10 per dose, 20 control animals) are subjected to acute hypobaric anoxia [pressure reduction of 600 mm Hg (i.e. about 8×10^4 Pa) in 90 seconds; release of vacuum in 45 seconds] and are then placed in an actimeter, where their motility is recorded for 10 minutes."}, "dogs": {"tested_on": "dogs", "assay": "Cardiovascular study in anesthetized dogs", "assay_type": "in vivo, dog", "procedure,_shortened": "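Nembutal-anaesthetized dogs (~14 kg) given CRL 41 194 (n=2) or CRL 41 221 (n=4) intraduodenally at successive 0.1, 0.5, 1, 2.5, 5 and 10 mg/kg doses. Blood pressure, heart rate, femoral and vertebral flow, rectal temperature measured; skin colour observed, plus bile colour (CRL 41 194).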"}, "mice [10]": {"tested_on": "mice", "assay": "Spontaneous motility", "assay_type": "in vivo, mouse", "conditions": "i.p.", "description": "0.5 hour after they have received CRL 41 153, the mice (6 per dose, 12 control animals) are placed in an actimeter, where their motility is recorded for 30 minutes."}, "rats [11]": {"tested_on": "rats", "assay": "Overall behavior and reactivities in rats", "assay_type": "in vivo, rat", "conditions": "dose not stated", "description": "(§1) In the neuropsychopharmacological study which follows, a solution of CRL 41 153 in distilled water (pH 1.5) was administered intraperitoneally in a volume of 20 ml/kg to male mice and 5 ml/kg to male rats.\n(§2) Groups of three animals are observed before and then 0.25 hour, 0.50 hour, 1 hour, 2 hours, 3 hours and 24 hours after the administration of CRL 41 153."}, "mice [12]": {"tested_on": "mice", "assay": "Overall behavior and reactivities in mice", "assay_type": "in vivo, mouse", "conditions": "dose not stated", "description": "as §1, §2"}, "mice [13]": {"tested_on": "mice", "assay": "Interaction with apomorphine in mice", "assay_type": "in vivo, mouse", "conditions": "i.p.", "description": "Groups of 6 mice receive CRL 41 153 0.5 hour before the subcutaneous injection of 1 or 16 mg/kg of apomorphine."}, "CNS": {"tested_on": "CNS", "assay": "Neuropsychopharmacological profile as a whole", "assay_type": "in vivo, mice and rats", "description": "as §1"}, "[14]": {"assay": "pH of solutions in distilled water", "assay_type": "physicochemical", "description": "The neuropsychopharmacological study was undertaken according to the procedures described above for CRL 41 153, CRL 41 213 being adminstered intraperitoneally, in solution in distilled water, in a volume of 20 ml/kg to male mice and a volume of 5 ml/kg to male rats, and the pH of the injected solution varying with the concentration of CRL 41 213 according to the data given in Table II below."}, "humans": {"tested_on": "humans", "assay": "Clinical study: vasodilator", "assay_type": "in vivo, human", "text": "In the treatment of diseases associated with the blood circulation through the vessels."}, "[15]": {"assay": "Acute toxicity by intraperitoneal administration", "assay_type": "in vivo, mouse", "conditions": "mouse, in vivo, ip; male mice", "description": "as §1"}, "[16]": {"conditions": "anesthetized dogs, intraduodenal"}},
  "note": "Entries after “also recorded” stand apart in the source; their conditions may differ. Counter-ions that a name gives are not always drawn.",
  "data": [
    {"smiles": "CC(C(=O)c1ccc(N)cc1)N1CCCC1", "note": "(stereo not drawn) [CRL 41 222, 1-(4-aminophenyl)-2-pyrrolidinopropanone dihydrochloride]", "values": [
      {"measurement": "Effect on stereotypies induced by apomorphine", "setting": "rats [1]", "result": "potentiation of the stereotypies"},
      {"measurement": "Effect on hypothermia induced by reserpine", "setting": "mice [2]", "result": "antagonism of the hypothermia"},
      {"measurement": "Effect on ptosis induced by reserpine", "setting": "mice [2]", "result": "antagonism of the ptosis induced by reserpine"},
      {"measurement": "Effect on hypothermic action of oxotremorine", "setting": "mice [3]", "result": "antagonism of the hypothermia"},
      {"measurement": "Effect on trembling induced by oxotremorine", "setting": "mice [3]", "result": "antagonism of the trembling induced by oxotremorine"},
      {"measurement": "Period of immobility due to despair", "setting": "mice [4]", "result": "a reduction in the period of immobility"},
      {"measurement": "Affected foetuses, number", "setting": "[5]; 5 mg/kg daily", "result": 1},
      {"measurement": "Total foetuses (live)", "setting": "[5]; 5 mg/kg daily", "result": 85},
      {"measurement": "Affected foetuses, %", "setting": "[5]; 5 mg/kg daily", "result": 1.29, "unit": "%"},
      {"measurement": "Affected foetuses, number", "setting": "[5]; 10 mg/kg daily", "result": 0},
      {"measurement": "Total foetuses (live)", "setting": "[5]; 10 mg/kg daily", "result": 92},
      {"measurement": "Affected foetuses, %", "setting": "[5]; 10 mg/kg daily", "result": 0, "unit": "%"},
      {"measurement": "Duration of the sleep induced by barbital", "setting": "mice [6]", "result": "distinct antagonism of the sleep induced by barbital"},
      {"measurement": "Motor activity of mice accustomed to their enclosure", "setting": "mice [7]", "result": "resumption in the motor activity of mice accustomed to their enclosure"},
      {"measurement": "Effect on stereotypies induced by amphetamine", "setting": "rats [8]", "result": "potentiation of the stereotypies"},
      {"measurement": "Motor recovery of mice after hypobaric hypoxia", "setting": "mice [9]", "result": "improvement in the motor recovery"},
      {"measurement": "Vasodilator (conclusion)", "setting": "dogs", "result": "vasodiating properties"},
      {"measurement": "Effect of propanolol or atenolol on the action of the product", "setting": "dogs; anesthetized dogs", "result": "acts by stimulating the β-cardiac and vascular receptors"},
      {"measurement": "Effect on hypertension induced by norepinephrine", "setting": "dogs; anesthetized dogs", "result": "moderately increases the hypertension induced by norepinephrine"},
      {"measurement": "Effects of isoprenaline (not further specified)", "setting": "dogs; anesthetized dogs", "result": "without modifying the effects of isoprenaline"},
      {"measurement": "Rectal temperature", "setting": "dogs; anesthetized dogs", "result": "The rectal temperature and skin temperature rise"},
      {"measurement": "Skin temperature", "setting": "dogs; anesthetized dogs", "result": "The rectal temperature and skin temperature rise"},
      {"measurement": "Blood pressure", "setting": "dogs; [16]", "result": "A hypotensive action appears at 20 mg/kg as a drop in the diastolic blood pressure"},
      {"measurement": "Femoral flow", "setting": "dogs; [16]", "result": "substantial and regular increase in the femoral and vertebral flows"},
      {"measurement": "Heart rate", "setting": "dogs; [16]", "result": "accompanied by tachycardia"},
      {"measurement": "Respiration", "setting": "dogs; [16]", "result": "Respiratory stimulation is observed in all the animals"},
      {"measurement": "Vertebral flow", "setting": "dogs; [16]", "result": "substantial and regular increase in the femoral and vertebral flows"},
      {"measurement": "Spontaneous motor activity", "setting": "mice [10]", "result": "an increase in the motor activity"},
      {"measurement": "Overall behavior: observed effects (summary)", "setting": "rats [11]", "result": "excitation in mice and rats"},
      {"measurement": "Stereotype movements (summary)", "setting": "rats [11]", "result": "presence of stereotype movements"},
      {"measurement": "Overall behavior: observed effects (summary)", "setting": "mice [12]", "result": "excitation in mice and rats"},
      {"measurement": "Stereotype movements (summary)", "setting": "mice [12]", "result": "presence of stereotype movements"},
      {"measurement": "Effect on hypothermia induced by apomorphine", "setting": "mice [13]", "result": "antagonism of the hypothermia"},
      {"measurement": "Antidepressant effects (overall)", "setting": "CNS; conclusion of the tests", "result": "possessing antidepressant, stimulant and arousing properties"},
      {"measurement": "Stimulant effects (overall)", "setting": "CNS; conclusion of the tests", "result": "possessing antidepressant, stimulant and arousing properties"},
      {"measurement": "α-adrenergic stimulant effects (overall)", "setting": "CNS; conclusion of the tests", "result": "peripheral α-adrenergic stimulant effects"},
      {"measurement": "Peripheral α-adrenergic signs (mydriasis, salivation, lacrimation, exophthalmos)", "setting": "CNS; species and dose not stated, dihydrochloride", "result": "mydriasis; also recorded: salivation and lacrimation"},
      {"measurement": "pH", "setting": "[14]; 0.1 g/liter in distilled water", "result": 5},
      {"measurement": "pH", "setting": "[14]; 0.2 g/liter in distilled water", "result": 4.5},
      {"measurement": "pH", "setting": "[14]; 0.4 g/liter in distilled water", "result": 4.0},
      {"measurement": "pH", "setting": "[14]; 0.8 g/liter in distilled water", "result": 3.5},
      {"measurement": "pH", "setting": "[14]; 1.6 g/liter in distilled water", "result": 3.0},
      {"measurement": "pH", "setting": "[14]; 3.2 g/liter in distilled water", "result": 2.5},
      {"measurement": "pH", "setting": "[14]; 6.4 g/liter in distilled water", "result": 2.0},
      {"measurement": "pH", "setting": "[14]; 12.8 g/liter in distilled water", "result": 1.5},
      {"measurement": "pH", "setting": "[14]; ≤0.05 g/liter in distilled water", "result": 5.5},
      {"measurement": "Vasodilator in human clinical use", "setting": "humans", "result": "good peripheral vasodilator at a daily dose of 2×10 mg"},
      {"measurement": "LD50", "setting": "[15]", "result": 87, "unit": "mg/kg"}
    ]}
  ]
}
